Reference: patent publication US8921388B2, “Dihydroxypyrimidine carbonic acid derivatives and their use in the treatment, amelioration or prevention of a viral disease” (priority 2012, dated 2014)

Each compound was assayed against T1, influenza A virus (IAV) PA-Nter fragment (amino acids 1-209) harbouring the influenza endonuclease activity (Influenza A virus, UniProt P31343) (assay: FRET endonuclease activity assay). Details: @ 10 μM; compound-treated compared to untreated.
T1 construct: PA-Nter fragment (amino acids 1-209); made in house
Format: biochemical

Row | SMILES | FRET % reduction of v0 [% @ 10 μM]
1 | COC(=O)c1nc(CC2CCCCC2)n(C)c(=O)c1O | 25
2 | COC(=O)c1c(O)c(=O)nc(Cc2ccccc2Br)n1Cc1ccccc1 | 23
3 | O=C(NCc1ccc(Cl)cc1)c1nc(Cc2ccccc2Br)nc(O)c1O | 37

Same assay, conditions: calculated from initial reaction velocities (v0); 0.5 μM PA-Nter, 1.6 μM RNA substrate

Row | SMILES | IC50 [nM]
4 | CC(C)NC(=O)c1nc(Cc2ccccc2-c2ccccc2)n(C)c(=O)c1O | 14000
5 | O=C(O)c1c(O)c(=O)nc(Cc2ccccc2)n1Cc1ccccc1 | 3800
6 | CNC(=O)c1nc(CC2(c3ccccc3)CCCC2)n(C)c(=O)c1O | 410
7 | CNC(=O)c1nc(Cc2ccccc2-c2cc(C)ccc2C)nc(O)c1O | 530
8 | CNC(=O)c1nc(NS(=O)(=O)Cc2ccc(C)cc2)n(C)c(=O)c1O | 13000
9 | O=C(NCc1ccc(Cl)cc1)c1nc(Cc2ccccc2-c2ccccc2)nc(O)c1O | 1800
10 | CNC(=O)c1nc(NS(=O)(=O)Cc2ccccc2)n(C)c(=O)c1O | 3000
11 | O=C(O)c1nc(Cc2cc(C(F)(F)F)ccc2Br)nc(O)c1O | 160
12 | COC(=O)c1c(O)c(=O)nc(Cc2ccccc2)n1Cc1ccccc1 | 19000
13 | NC(=O)c1nc(CC2(c3ccccc3)CCCC2)nc(O)c1O | 240
14 | Cc1ccccc1Cc1nc(O)c(O)c(C(=O)O)n1 | 270
15 | Cn1c(Cc2ccccc2-c2ccccc2)nc(C(N)=O)c(O)c1=O | 1300
16 | CC(C)NC(=O)c1nc(Cc2ccccc2-c2ccccc2)nc(O)c1O | 8200
17 | CNC(=O)c1nc(NS(=O)(=O)Cc2ccc(Cl)cc2)n(C)c(=O)c1O | 5800
18 | O=C(O)c1nc(CC2(c3ccccc3)CCCC2)nc(O)c1O | 80
19 | Cn1c(Cc2ccccc2-c2ccccc2)nc(C(=O)O)c(O)c1=O | 1300
20 | Cn1c(CC2(c3ccccc3)CCCC2)nc(C(=O)O)c(O)c1=O | 260
21 | COC(=O)c1nc(CC2(c3ccccc3)CCCC2)nc(O)c1O | 410
22 | CNC(=O)c1nc(CC2CCCCC2)nc(O)c1O | 6500
23 | Cn1c(NS(=O)(=O)Cc2ccc(Cl)cc2)nc(C(=O)O)c(O)c1=O | 540
24 | Cc1ccc(C)c(-c2ccccc2Cc2nc(O)c(O)c(C(=O)O)n2)c1 | 30
25 | CCCNC(=O)c1nc(Cc2ccccc2-c2ccccc2)nc(O)c1O | 8800
26 | CNC(=O)c1nc(CC2(c3ccccc3)CCCC2)nc(O)c1O | 140
27 | CCOC(=O)c1nc(Cc2ccccc2-c2cc(C)ccc2C)nc(O)c1O | 220
28 | O=C(O)c1nc(Cc2ccc(F)cc2Br)nc(O)c1O | 180
29 | O=C(O)c1nc(CC2CCCCC2)nc(O)c1O | 210
30 | O=C(O)c1c(O)c(=O)nc(Cc2ccccc2Br)n1Cc1ccccc1 | 5700

Row | SMILES | IC50 [nM]
31 | O=C(NCCc1ccccc1)c1nc(Cc2ccccc2-c2ccccc2)nc(O)c1O | 3800
32 | CC(C)NC(=O)c1nc(Cc2cccc(Br)c2)nc(O)c1O | 23000
33 | O=C(O)c1nc(CC(c2ccccc2)c2ccccc2)nc(O)c1O | 2500
34 | COC(=O)c1nc(Cc2ccc(F)cc2Br)nc(O)c1O | 1500
35 | CNC(=O)c1nc(Cc2ccccc2-c2ccccc2)n(C)c(=O)c1O | 23000
36 | O=C(O)c1nc(Cc2ccccc2Br)nc(O)c1O | 250
37 | Cc1cccc(-c2ccccc2Cc2nc(C(N)=O)c(O)c(=O)[nH]2)c1 | 550
38 | O=C(O)c1nc(Cc2ccccc2-c2ccccc2)nc(O)c1O | 40
39 | O=C(c1nc(Cc2ccccc2-c2ccccc2)nc(O)c1O)N1CCCC1 | 1100
40 | CNC(=O)c1nc(Cc2ccccc2-c2ccccc2)nc(O)c1O | 660
41 | COC(=O)c1nc(Cc2ccccc2-c2ccccc2C)nc(O)c1O | 120
42 | Cc1cccc(-c2ccccc2Cc2nc(O)c(O)c(C(=O)O)n2)c1 | 230
43 | Cc1ccccc1-c1ccccc1Cc1nc(O)c(O)c(C(=O)O)n1 | 240
44 | O=C(NCc1ccccc1)c1nc(Cc2ccccc2-c2ccccc2)nc(O)c1O | 16000
45 | Cc1ccc(C)c(-c2ccccc2Cc2nc(O)c(O)c(C(=O)OC(C)(C)C)n2)c1 | 1100
46 | O=C(NCc1ccccc1)c1nc(CC2(c3ccccc3)CCCC2)nc(O)c1O | 1100
47 | CNC(=O)c1nc(NS(=O)(=O)Cc2cccc(C)c2)n(C)c(=O)c1O | 6800
48 | O=C(NCc1ccc(F)cc1)c1nc(Cc2ccccc2Br)nc(O)c1O | 27000
49 | CNC(=O)c1nc(Cc2ccccc2Br)nc(O)c1O | 5700
50 | CCOC(=O)c1nc(CC2CCCCC2)nc(O)c1O | 3200
51 | COC(=O)c1nc(Cc2ccccc2-c2cc(C)ccc2C)nc(O)c1O | 150
52 | COC(=O)c1nc(Cc2ccccc2Br)nc(O)c1OC(C)=O | 7900
53 | NC(=O)c1nc(Cc2ccc(F)cc2Br)nc(O)c1O | 2700
54 | COC(=O)c1nc(Cc2ccccc2-c2cccc(C)c2)nc(O)c1O | 350
55 | CCOC(=O)c1nc(Cc2cncn2Cc2ccccc2)nc(O)c1O | 9500
56 | O=C(NCc1ccc(F)cc1)c1nc(Cc2ccccc2-c2ccccc2)nc(O)c1O | 1700
